Assay: recombinant barcode read abundance after kanamycin selection (control-corrected) (log10(CPM+1)); higher = more efficient recombination; sequences stand for … in AGTGCAGAGAAAATCGGCCAGTTTTCTCTGCCTGCAGTCCGCATGCCGT…AGATTTATGCAGCGGACTGCCTTTCTCCCAAAGTGATAAACCGGACAGTATCATGGACCGGTTTTCCCGGTAATCCGTATTTGCAAGGTTGGTTTCACT; site = the 11-nt target
Procedure: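 Pooled E. coli target-specificity screen for the IS621 bridge recombinase. Each library plasmid pairs an 11-nt target (CT core) with a bridge RNA whose target-binding loop (9-nt LTG + 4-nt RTG) is reprogrammed; the rest of the 177-nt WT IS621 bridge RNA scaffold is fixed. The plasmid is co-electroporated with a WT donor plasmid; recombinase is induced with 0.1 mM IPTG and recombinants are selected on kanamycin. Recombinant barcodes are sequenced, converted to CPM, averaged over two biological replicates and corrected by the unselected control CPM. Molecule = full bridge RNA written as DNA: LTG = specificity nt 1-9, RTG = reverse complement of specificity nt 8-11, in the WT scaffold.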
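Note: IS621 recombinase and bridge RNA in Escherichia coli cells.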

Sequence | recombinant barcode read abundance (log10)
TGTCTGTCTTGGGTTCTAACCTGTTGCTA (site TGTCTGTCTAA) | 0.0174
ACACCACCTTGGGTTCTAACCTGTTGCCT (site ATACCACCTAG) | 0.0171
TAGGCTGCTTGGGTTCTAACCTGTTGCAT (site TAGGCTGCTAT) | 0.882
TCGAACGCTTGGGTTCTAACCTGTTGCTT (site CACGGGACTCT) | 0.115
CCGCGTCCTTGGGTTCTAACCTGTTGCTA (site CCGCCTCCTTC) | 0.128
ACGACTTCTTGGGTTCTAACCTGTTGCCT (site ACGACTGCTAG) | 0
AGCGCGCCTTGGGTTCTAACCTGTTGCTG (site AGCGCGCCTCA) | 0.224
CGAACTACTTGGGTTCTAACCTGTTGCTT (site CGAACTACTAA) | 0.142
CGCCTTCCTTGGGTTCTAACCTGTTGCAT (site CGCCCTCCTAT) | 0.157
GTCCGTCCTTGGGTTCTAACCTGTTGCAT (site GTCCGTCCTAG) | 0.129
ATGATTACTTGGGTTCTAACCTGTTGCCT (site ATGATTACTAG) | 0.385
GTGGCGTCTTGGGTTCTAACCTGTTGCCT (site GTGGCGTCTAG) | 1.79
GTCTCATCTTGGGTTCTAACCTGTTGCCT (site GTCTCATCTAG) | 0.154
ACAAAACCTTGGGTTCTAACCTGTTGCCT (site ACAAAGCCTAG) | 0.0848
TCAGCGACTTGGGTTCTAACCTGTTGCCT (site TCAGCGACTAG) | 0.481
GTCAGATCTTGGGTTCTAACCTGTTGCTT (site TCGTTCGCTCG) | 0.0896
CTGCGTGCTTGGGTTCTAACCTGTTGCCT (site CAGCGTGCTAG) | 0.503
TTCTTCCCTTGGGTTCTAACCTGTTGCCT (site TTGTACCCTAG) | 0.1
GTCTTCCCTTGGGTTCTAACCTGTTGCGT (site GTCATGCCTAC) | 0.0371
ATATGCGCTTGGGTTCTAACCTGTTGCCG (site ATATGTGCTCG) | 0.262
TCCAAACCTTGGGTTCTAACCTGTTGCGG (site TCCAACACTCC) | 0.00629

Sequence | recombinant barcode read abundance (log10)
GAACCTTCTTGGGTTCTAACCTGTTGCCT (site GAACGATCTAG) | 0.0234
AGTCCGTCTTGGGTTCTAACCTGTTGCAT (site CTAATAGCTTG) | 0.0391
AACATTCCTTGGGTTCTAACCTGTTGCCT (site TACATTCCTAG) | 0.0261
CGTACCGCTTGGGTTCTAACCTGTTGCCT (site CGTACCGCTAG) | 0.496
CATCGGACTTGGGTTCTAACCTGTTGCTA (site CATCGGACTTA) | 0.834
AGGCCGTCTTGGGTTCTAACCTGTTGCGT (site AGGCAGTCTAG) | 0.195
TATTCTACTTGGGTTCTAACCTGTTGCGT (site TATTCTACTGC) | 0.0341
GTCGGCACTTGGGTTCTAACCTGTTGCCT (site GTCGGGACTAG) | 0.653
TGGGCACCTTGGGTTCTAACCTGTTGCTT (site GGGGCACCTTA) | 0.175
CAAGACCCTTGGGTTCTAACCTGTTGCCT (site CAAGACCCTAG) | 2.5
CGAGATTCTTGGGTTCTAACCTGTTGCCT (site CTAGATTCTAG) | 0.332
TAGGCGACTTGGGTTCTAACCTGTTGCTA (site TAGGGCACTTA) | 0.156
TGAGTCTCTTGGGTTCTAACCTGTTGCCA (site ACCCAGCCTCT) | 0.0473
AGACTAGCTTGGGTTCTAACCTGTTGCGT (site AGACTAGCTAC) | 2.51
ATCGGAGCTTGGGTTCTAACCTGTTGCGG (site ATCGGAGCTCA) | 0.135
GTCCTACCTTGGGTTCTAACCTGTTGCCT (site GTCTTACCTAG) | 0.588
GTTCCCTCTTGGGTTCTAACCTGTTGCTT (site GCTCACTCTAA) | 0.245
GCATCGGCTTGGGTTCTAACCTGTTGCCT (site GCGTCGGCTAG) | 0.0974
CACTCTGCTTGGGTTCTAACCTGTTGCCT (site CAGTCTGCTAG) | 0.0477
ACACACTCTTGGGTTCTAACCTGTTGCTG (site ACACACTCTCA) | 1.97
GACACAGCTTGGGTTCTAACCTGTTGCCT (site GATACAGCTAG) | 0.372

Sequence | recombinant barcode read abundance (log10)
GGACGGCCTTGGGTTCTAACCTGTTGCCT (site GGACGCCCTAG) | 0.133
TGGAGCCCTTGGGTTCTAACCTGTTGCAT (site TGGAGCCCTGT) | 0.0522
CGGATGGCTTGGGTTCTAACCTGTTGCCT (site CGGATTGCTAG) | 0.0444
GCAACCTCTTGGGTTCTAACCTGTTGCTA (site GCAACCTCTTA) | 1.92
AGCAGAGCTTGGGTTCTAACCTGTTGCGG (site AGCAGAGCTCA) | 1.12
TATTAGACTTGGGTTCTAACCTGTTGCCT (site CATTAGACTAG) | 0.13
TAGGCTGCTTGGGTTCTAACCTGTTGCAT (site TTGGGTGCTAT) | 0.0414
CACCGTCCTTGGGTTCTAACCTGTTGCGT (site CACCGTCCTAC) | 3.03
TGTGAGTCTTGGGTTCTAACCTGTTGCGT (site TGTGAGTCTAT) | 1.42
CGTAGCCCTTGGGTTCTAACCTGTTGCGG (site ACATATACTAA) | 0.157
TTCCGTCCTTGGGTTCTAACCTGTTGCTT (site TTCCGTCCTAA) | 0.0911
CGGGCGTCTTGGGTTCTAACCTGTTGCTA (site CGGGCGTCTTA) | 1.17
CCTTGAGCTTGGGTTCTAACCTGTTGCTG (site GCTTGAGCTCG) | 0.0694
TACCCGTCTTGGGTTCTAACCTGTTGCTT (site TACCGGTCTAA) | 0.168
GGTCATTCTTGGGTTCTAACCTGTTGCCT (site GGTCATACTAG) | 0.0311
CTAGGAGCTTGGGTTCTAACCTGTTGCTC (site CTAGGAGCTTA) | 0.126
CAGGCGGCTTGGGTTCTAACCTGTTGCCT (site CAGGCGCCTAG) | 0.254
CTAGAAGCTTGGGTTCTAACCTGTTGCGT (site CTAGAAGCTAC) | 2.52
TGGGACTCTTGGGTTCTAACCTGTTGCCT (site TGGGACTCTAG) | 2.64
TACCGGCCTTGGGTTCTAACCTGTTGCTT (site TACCGGACTAC) | 0.0691
CAGCCCTCTTGGGTTCTAACCTGTTGCCT (site CTGCCCTCTAG) | 0.315

Sequence | recombinant barcode read abundance (log10)
GAGAACACTTGGGTTCTAACCTGTTGCCT (site AAGAACACTAG) | 1.09
GTTCAGACTTGGGTTCTAACCTGTTGCCT (site GTGCAGACTAG) | 0.0632
AGGATTCCTTGGGTTCTAACCTGTTGCCT (site AGGATTCCTAG) | 1.16
CGTCGGACTTGGGTTCTAACCTGTTGCAG (site TAGTTTGCTTC) | 0.0182
CACATCGCTTGGGTTCTAACCTGTTGCCT (site CACATCGCTAG) | 1.08
TTGATTACTTGGGTTCTAACCTGTTGCCA (site TTGATTACTTG) | 0.0149
CTAGTGTCTTGGGTTCTAACCTGTTGCAC (site CTAGTGTCTGT) | 1.88
CGTAAGACTTGGGTTCTAACCTGTTGCCT (site CGTAAGACTAG) | 0.489
CTAAATACTTGGGTTCTAACCTGTTGCCT (site CTAAATACTTA) | 0.0116
CAAGGGACTTGGGTTCTAACCTGTTGCGG (site CAAGGGACTCC) | 2.33
CCTAGAACTTGGGTTCTAACCTGTTGCCT (site CCTAGACCTAG) | 0.0135
ACGCCTCCTTGGGTTCTAACCTGTTGCTG (site ACGCCTCCTCA) | 0.384
TGTCATGCTTGGGTTCTAACCTGTTGCGT (site TGTCATGCTAC) | 0.163
ACTTGAGCTTGGGTTCTAACCTGTTGCAT (site ACTTGAGCTAT) | 1.36
CCGATATCTTGGGTTCTAACCTGTTGCCT (site CCGGTATCTAG) | 1.97
ATGCTACCTTGGGTTCTAACCTGTTGCGG (site CACGGGGCTAG) | 0.0226
CGTGTAACTTGGGTTCTAACCTGTTGCTT (site CGAGCAACTAA) | 0.0308
GCAAATCCTTGGGTTCTAACCTGTTGCCT (site GCACATCCTAC) | 0.108
CTCGATTCTTGGGTTCTAACCTGTTGCAT (site CTCAATTCTAT) | 0.355
